Read-outs that look alike come from different tables or passages of the source.
Columns and labels:
[1] = system: HCV replicon in Huh7 cells; experiment: HCV replicon cell-based assay; design: species or system HCV strain 1B
Summary of the method: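 Genotype 1b subgenomic replicon Huh7 cells exposed to compound 4 days at 37° C in 4% FCS, 0.5% DMSO medium. EC50 from TaqMan RT-PCR of HCV RNA, normalized to total RNA by RiboGreen; CC50 from alamar Blue fluorescence after 4 h.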

[2] = target: HCV NS3/4A protease complex (Hepatitis C virus genotype 1a, UniProt P27958, C1454S/C1711G); experiment: Recombinant HCV NS3/4A protease complex FRET peptide assay (strain not stated); format: biochemical; conditions: strain not stated, activity ranges
HCV NS3/4A protease complex, sequence (P27958 1027-1711, stated change not applied): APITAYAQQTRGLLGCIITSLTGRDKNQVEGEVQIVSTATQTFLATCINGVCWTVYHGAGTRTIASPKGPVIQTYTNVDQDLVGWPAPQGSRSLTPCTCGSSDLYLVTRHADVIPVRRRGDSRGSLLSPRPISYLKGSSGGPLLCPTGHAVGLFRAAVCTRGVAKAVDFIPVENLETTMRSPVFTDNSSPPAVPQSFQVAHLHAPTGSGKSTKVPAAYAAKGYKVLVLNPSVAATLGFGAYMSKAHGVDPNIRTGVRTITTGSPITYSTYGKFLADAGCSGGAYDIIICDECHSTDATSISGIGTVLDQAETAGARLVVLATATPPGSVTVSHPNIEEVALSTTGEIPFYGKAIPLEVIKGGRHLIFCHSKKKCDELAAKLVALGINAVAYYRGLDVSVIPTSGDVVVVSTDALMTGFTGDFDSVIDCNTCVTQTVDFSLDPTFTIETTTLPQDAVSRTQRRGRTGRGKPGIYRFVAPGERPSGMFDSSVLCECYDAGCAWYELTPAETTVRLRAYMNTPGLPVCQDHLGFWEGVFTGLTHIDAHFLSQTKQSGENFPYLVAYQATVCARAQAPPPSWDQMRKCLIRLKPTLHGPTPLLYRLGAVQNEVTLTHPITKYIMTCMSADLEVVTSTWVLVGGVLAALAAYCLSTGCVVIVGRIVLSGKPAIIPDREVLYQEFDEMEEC
HCV NS3/4A protease complex, sequence (P27958 1027-1711, stated change not applied): as above

[3] = Hepatitis C virus, Huh-7, 96 h, HCV replicon, Huh7 cells, 4 days, activity ranges, read-out: EC50
[4] = IC50, NS3/4A protease enzyme assay

Row | Compound | EC50 ([1]; HCV replicon, Huh7 cells, 4 days, activity ranges, read-out: EC50) | IC50 ([2]; NS3/4A protease enzyme assay, read-out: IC50) | EC50 [1, 3] | IC50 [2, 4] | EC50 ([1]; Hepatitis C virus, Huh-7, 96 h)
1 | 1-[2S-(4-fluoro-benzenesulfonylamino)-3,3-dimethyl-butyryl]-4R-(7-methoxy-2-phenylquinolin-4-yloxy)-pyrrolidine-2S-carboxylic acid (1R-cyclopropanesulfonylaminocarbonyl -2S-vinyl-cyclopropyl)amide [Compound 119] | < 500 nM | < 50 nM |  |  | 
2 | C=C[C@@H]1C[C@]1(NC(=O)C1C[C@@H](Oc2cc(-c3ccccc3)nc3cc(OC)ccc23)CN1C(=O)[C@@H](NC(=O)OCCCC)C(C)(C)C)C(=O)NS(=O)(=O)C1CC1 (stereo partly drawn) [Compound 127, {1S-[2S-(1R-cyclopropanesulfonylaminocarbonyl-2S-vinyl-cyclopropylcarbamoyl)-4R-(7-methoxy-2-phenyl-quinolin-4-yloxy)-pyrrolidine-1-carbonyl]-2,2-dimethyl-propyl}-carbamic acid butyl ester] |  |  | < 50 nM | < 50 nM | 
3 | C=C[C@@H]1C[C@]1(NC(=O)C1CC(Oc2cc(-c3ccccc3)nc3cc(OC)ccc23)CN1C(=O)[C@@H](NC(=O)OCc1ccccc1)C(C)(C)C)C(=O)NS(=O)(=O)C1CC1 (stereo partly drawn) [Compound 114, {1S-[2S-(1R-cyclopropanesulfonylaminocarbonyl-2S-vinyl-cyclopropylcarbamoyl)-4R-(7-methoxy-2-phenyl-quinolin-4-yloxy)-pyrrolidine-1-carbonyl]-2,2-dimethyl-propyl}-carbamic acid benzyl ester] |  |  | < 50 nM | < 50 nM | 
4 | C=CC1C[C@]1(NC(=O)[C@@H]1C[C@@H](Oc2cc(-c3ccccc3)nc3cc(OC)ccc23)CN1C(=O)[C@@H](NC(=O)NC(C)(C)C)C(C)(C)C)C(=O)NS(=O)(=O)C1CC1 (stereo in doubt) [Compound 19, 1-[2-(3-tert-Butylureido)-3,3-dimethylbutyryl]-4-(7-methoxy-2-phenylquinolin-4-yloxy)pyrrolidine-2-carboxylic acid (1-cyclopropanesulfonylaminocarbonyl-2-vinylcyclopropyl)amide] |  |  | < 50 nM | < 50 nM | 
5 | C=CC1C[C@]1(NC(=O)[C@@H]1C[C@@H](Oc2cc(-c3ccccc3)nc3cc(OC)ccc23)CN1C(=O)[C@@H](NC(=O)OC(C)(C)C)C(C)C)C(=O)NS(=O)(=O)C1CC1 (stereo partly drawn) [Compound 31] |  |  | < 50 nM | < 50 nM | 
6 | C=C[C@@H]1C[C@]1(NC(=O)C1C[C@@H](Oc2cc(-c3ccccc3)nc3cc(OC)ccc23)CN1C(=O)[C@@H](NC(=O)CF)C(C)(C)C)C(=O)NS(=O)(=O)C1CC1 (stereo partly drawn) [Compound 112, 1-[2S-(2-Fluoro-acetylamino)-3,3-dimethyl-butyryl]-4R-(7-methoxy-2-phenyl-quinolin-4-yloxy)-pyrrolidine-2S-carboxylic acid (1R-cyclopropanesulfonylaminocarbonyl-2S-vinyl-cyclopropyl)-amide] |  |  |  | < 50 nM | < 50 nM
7 | C=C1C[C@]1(NC(=O)[C@@H]1C[C@@H](Oc2cc(-c3ccccc3)nc3cc(OC)ccc23)CN1C(=O)C(NC(=O)OC(C)(C)C)C(C)(C)C)C(=O)NS(=O)(=O)c1cccc(Br)c1 (stereo partly drawn) [Compound 55] |  |  | < 50 nM | < 50 nM | 
8 | C=CC1C[C@]1(NC(=O)[C@@H]1C[C@@H](Oc2cc(-c3ccccc3)nc3cc(OC)ccc23)CN1C(=O)[C@@H](NC(=O)OC(C)(C)C)C(C)(C)C)C(=O)NS(=O)(=O)C1CCCC1 (stereo in doubt) [Compound 12, {1-[2-(1-Cyclopentanesulfonylaminocarbonyl-2-vinylcyclopropylcarbamoyl)-4-(7-methoxy-2-phenylquinolin-4-yloxy)-pyrrolidine-1-carbonyl]-2,2-dimethylpropyl}carbamic acid tert-butyl ester] |  |  | < 500 nM | < 500 nM | 
9 | C=C[C@@H]1C[C@]1(NC(=O)C1C[C@@H](Oc2cc(-c3ccccc3)nc3cc(OC)ccc23)CN1C(=O)[C@@H](Nc1ccncc1[N+](=O)[O-])C(C)(C)C)C(=O)NS(=O)(=O)C1CC1 (stereo partly drawn) [Compound 129, 1-[3,3-dimethyl-2S-(3-nitropyridin-4-ylamino)-butyryl]-4R-(7-methoxy-2-phenylquinolin-4-yloxy)-pyrrolidine-2S-carboxylic acid (1R-cyclopropanesulfonylaminocarbonyl-2S-vinylcyclopropyl)amide] |  |  | < 50000 nM | < 5000 nM | 
10 | C=CC1C[C@]1(NC(=O)[C@@H]1C[C@@H](Oc2cc(-c3ccccc3)nc3cc(OC)ccc23)CN1C(=O)[C@@H](NC(=O)OC(C)(C)C)C(C)(C)C)C(=O)NS(=O)(=O)CC1CC1 (stereo in doubt) [Compound 16, {1-[2-(1-Cyclopropylmethanesulfonylaminocarbonyl-2-vinylcyclopropylcarbamoyl)-4-(7-methoxy-2-phenylquinolin-4-yloxy)pyrrolidine-1-carbonyl]-2,2-dimethylpropyl}-carbamic acid tert-butyl ester] |  |  | < 500 nM | < 500 nM | 
11 | C=CCC[C@](C)(NC(=O)[C@@H]1C[C@@H](Oc2cc(-c3ccccc3)nc3cc(OC)ccc23)CN1C(=O)C(NC(=O)OC(C)(C)C)C(C)(C)C)C(=O)NS(=O)(=O)c1ccccc1Cl (stereo partly drawn) [Compound 42] |  |  | < 500 nM | < 50 nM | 
12 | C=C1C[C@]1(NC(=O)[C@@H]1C[C@@H](Oc2cc(-c3ccccc3)nc3cc(OC)ccc23)CN1C(=O)C(NC(=O)OC(C)(C)C)C(C)(C)C)C(=O)NS(=O)(=O)c1cccc(C(F)(F)F)c1 (stereo partly drawn) [Compound 48] |  |  | < 500 nM | < 50 nM | 
13 | C=CC1C[C@]1(NC(=O)[C@@H]1C[C@@H](Oc2cc(-c3ccccc3)nc3cc(OC)ccc23)CN1C(=O)[C@@H](NC(=O)OC(C)(C)C)C(C)(C)C)C(=O)NS(=O)(=O)CCC (stereo partly drawn) [Compound 26] |  |  | < 500 nM | < 50 nM | 
14 | C=CC1C[C@]1(NC(=O)[C@@H]1C[C@@H](Oc2cc(-c3ccccc3)nc3cc(OC)ccc23)CN1C(=O)C(NC(=O)OC(C)(C)C)C(C)(C)C)C(=O)NS(=O)(=O)c1cccc2ccccc12 (stereo partly drawn) [Compound 35] |  |  | < 500 nM | < 50 nM | 
15 | C=CC1C[C@]1(NC(=O)[C@@H]1C[C@@H](Oc2cc(-c3ccccc3)nc3cc(OC)ccc23)CN1C(=O)[C@@H](NC(=O)OC(C)(C)C)C(C)C)C(=O)NS(=O)(=O)C(C)C (stereo partly drawn) [Compound 32] |  |  | < 50 nM | < 50 nM | 
16 | COc1ccc2c(O[C@@H]3C[C@@H](C(=O)NC4(C(=O)NS(=O)(=O)C5CC5)CC4)N(C(=O)[C@@H](NC(=O)OC(C)(C)C)C(C)(C)C)C3)cc(-c3ccccc3)nc2c1 [Compound 67] |  |  | < 5000 nM | < 50 nM | 
17 | C=CC1C[C@]1(NC(=O)[C@@H]1C[C@@H](Oc2cc(-c3ccccc3)nc3cc(OC)ccc23)CN1C(=O)[C@@H](NC(=O)OC(C)(C)C)C(C)(C)C)C(=O)NS(=O)(=O)C1CCC1 (stereo in doubt) [Compound 11, {1-[2-(1-Cyclobutanesulfonylaminocarbonyl-2-vinylcyclo-propylcarbamoyl)-4-(7-methoxy-2-phenylquinolin-4-yloxy)-pyrrolidine-1-carbonyl]-2,2-dimethylpropyl}carbamic acid tert-butyl ester] |  |  | < 50 nM | < 50 nM | 
18 | CCC1C[C@]1(NC(=O)[C@@H]1C[C@@H](Oc2cc(-c3ccccc3)nc3cc(OC)ccc23)CN1C(=O)[C@@H](NC(=O)CC1CC1)C(C)C)C(=O)NS(=O)(=O)C1CC1 (stereo in doubt) [Compound 5, 1-[2-(2-cyclopropylacetylamino)-3-methylbutyryl]-4-(7-methoxy-2-phenylquinolin-4-yloxy)pyrrolidine-2-carboxylic acid (1-cyclopropanesulfonylaminocarbonyl-2-ethylcyclopropyl)amide] |  |  | < 50 nM | < 50 nM | 
